Measured values published in paper PMC12088000, “Design, synthesis and in silico molecular modelling studies of 2-Hydrazineyl-2-oxoethyl-4-(1H-pyrrol-1-yb) benzoate derivatives: a potent dual DHFR and ENR-reductase inhibitors with antitubercular, antibacterial and cytotoxic potential” (PLOS One, 2025).
In brackets after ≈: the same amount, converted by molar mass.

Tests used:
S. aureus ATCC 29213 = assay: Antibacterial activity, broth microdilution (S. aureus); details: Staphylococcus aureus, ATCC29213, read-out: S. aureus ATCC 29213 (Gram +ve) MIC
Procedure: (§1) All twenty-eight molecules were evaluated for in vitro antimicrobial activities that were assessed against Gram +ve and Gram -ve strains.
(§2) The antibacterial inhibitory effects of all compounds were assessed using the broth microdilution method, with ciprofloxacin serving as the reference medication.

E. coli ATCC 25922 = assay: Antibacterial activity, broth microdilution (E. coli); details: for MIC: Escherichia coli, ATCC25922, read-out: E. coli ATCC 25922 (Gram –ve) MIC, broth microdilution; for E. coli ATCC 25922 (Gram –ve) MIC: broth microdilution
Procedure: as §1, §2

[1] = test system: human lung cancer cell line A549; assay: MTT-based cytotoxicity; assay type: cell-based; details: MTT assay; for IC50: Homo sapiens, A549
Procedure: The cytotoxic effects of seventeen selected molecules were assessed against the A549 human lung adenocarcinoma cell line using the MTT assay. Cisplatin served as the reference drug for comparison. Lower IC50 values indicate higher cytotoxicity.
The cytotoxic activity (IC50) of selected compounds against A549 (lung adenocarcinoma) MV cell-lines was evaluated by performing cellular conversion of MTT [3-(4,5-dimethylthiazo-2-yl)-2,5-diphenyl-tetrazolium bromide] into a formazan product. This evaluation was conducted up to a concentration of 50 mg/mL using the Promega Cell Titre 96 non-radioactive cell proliferation assay, with cisplatin serving as the positive control. Cytotoxicity is commonly quantified by determining the IC50 value, which represents the quantity of a substance that reduces the optical density of treated cells by 50% compared to untreated cells, as measured by the MTT experiment. The results are presented as IC50 values (mean ± standard error of the mean (SEM) obtained from three separate and independent measurements.

[2] = biological target: InhA enzyme from M. tuberculosis (Mycobacterium tuberculosis, UniProt P9WGR1); assay: InhA inhibition assay; assay type: biochemical; details: for inhibition at 50 µM: read-out: % InhA Inhibition at 50 µM
MtDHFR = MtDHFR (Mycobacterium tuberculosis, UniProt P9WNX1); assay: biochemical; assay type: biochemical
M. tuberculosis H37Rv = assay: Antitubercular activity, Microplate Alamar Blue test (MABA); assay type: cell-based, Mycobacterium tuberculosis; details: Mycobacterium tuberculosis, H37RV, n = 3

MtDHFR, sequence (P9WNX1 whole entry): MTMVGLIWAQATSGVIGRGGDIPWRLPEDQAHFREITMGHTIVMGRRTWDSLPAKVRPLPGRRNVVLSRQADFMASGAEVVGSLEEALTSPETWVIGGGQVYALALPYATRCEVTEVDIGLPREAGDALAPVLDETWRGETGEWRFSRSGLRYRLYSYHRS
InhA enzyme from M. tuberculosis, sequence (P9WGR1 whole entry, looked up): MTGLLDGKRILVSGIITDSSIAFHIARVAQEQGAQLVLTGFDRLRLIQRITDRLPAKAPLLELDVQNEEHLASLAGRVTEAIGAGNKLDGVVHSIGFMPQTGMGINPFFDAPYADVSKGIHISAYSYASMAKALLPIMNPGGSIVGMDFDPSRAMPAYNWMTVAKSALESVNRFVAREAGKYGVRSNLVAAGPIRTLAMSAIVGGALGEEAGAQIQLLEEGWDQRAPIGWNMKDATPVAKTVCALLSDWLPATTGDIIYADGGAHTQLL

SMILES | MIC (S. aureus ATCC 29213) [µg/mL] | MIC (E. coli ATCC 25922) [µg/mL] | IC50 [1] [µg/mL] | inhibition at 50 µM [2] [%] | IC50 (MtDHFR) [µM] | MIC (M. tuberculosis H37Rv) [µg/mL] | MtDHFR inhibition, in words, compared with trimethoprim (MtDHFR) | E. coli ATCC 25922 (Gram –ve) MIC (E. coli ATCC 25922) [µg/mL] | IC50 human lung cancer cell line A549 [1] [µg/mL] | % InhA Inhibition at 50 µM [2]
O=C(O)c1cn(C2CC2)c2cc(N3CCNCC3)c(F)cc2c1=O [Ciprofloxacin, reference compound] | 2 (≈ 6.04 µM) | 2 (≈ 6.04 µM) | – | – | – | – | – | – | – | –
O=C(COC(=O)c1ccc(-n2cccc2)cc1)NN=Cc1ccccc1 [Compound 6a, 2-(2-benzylidenehydrazinyl)-2-oxoethyl 4-(1H-pyrrol-1-yl)benzoate] | 12.5 (≈ 36 µM) | 1.6 (≈ 4.61 µM) | 244 ± 0.8 (≈ 702 µM) | 13 | 132 | 1.6 (≈ 4.61 µM) | – | – | – | –
CC(=NNC(=O)COC(=O)c1ccc(-n2cccc2)cc1)c1cccc(O)c1 [Compound 5p, 2-(2-(1-(3-hydroxyphenyl)ethylidene)hydrazinyl)-2-oxoethyl 4-(1H-pyrrol-1-yl)benzoate] | 12.5 (≈ 33.1 µM) | 3.12 (≈ 8.27 µM) | – | – | 115 | 3.12 (≈ 8.27 µM) | – | – | – | –
C=C1CC(=O)N(C(=O)COC(=O)c2ccc(-n3cccc3)cc2)NC1=O [Compound 4g, 2-(4-methylene-3,6-dioxotetrahydropyridazin-1(2H)-yl)-2-oxoethyl 4-(1H-pyrrol-1-yl)benzoate] | 3.12 (≈ 8.83 µM) | 0.8 (≈ 2.26 µM) | – | – | 56 | 1.6 (≈ 4.53 µM) | moderate inhibition | – | – | –
COc1ccc(C(C)=NNC(=O)COC(=O)c2ccc(-n3cccc3)cc2)cc1 [Compound 5i, 2-(2-(1-(4-methoxyphenyl)ethylidene)hydrazinyl)-2-oxoethyl 4-(1H-pyrrol-1-yl)benzoate] | 6.25 (≈ 16 µM) | 1.6 (≈ 4.09 µM) | – | – | 129 | 3.12 (≈ 7.97 µM) | – | – | – | –
CC(=NNC(=O)COC(=O)c1ccc(-n2cccc2)cc1)c1ccc(Br)cc1Br [Compound 5m, 2-(2-(1-(2,4-dibromophenyl)ethylidene)hydrazinyl)-2-oxoethyl 4-(1H-pyrrol-1-yl)benzoate] | 6.25 (≈ 12 µM) | 0.4 to 0.8 (≈ 0.77 to 1.54 µM) | – | – | 90 | 3.12 (≈ 6.01 µM) | – | 0.8 | – | –
CC(=NNC(=O)COC(=O)c1ccc(-n2cccc2)cc1)c1cccc(Br)c1 [Compound 5f, 2-(2-(1-(3-bromophenyl)ethylidene)hydrazinyl)-2-oxoethyl 4-(1H-pyrrol-1-yl)benzoate] | 3.12 (≈ 7.09 µM) | 1.6 (≈ 3.63 µM) | 275 ± 0.4 (≈ 625 µM) | 43 | 153 | 1.6 (≈ 3.63 µM) | – | – | – | –
COc1cccc(C(C)=NNC(=O)COC(=O)c2ccc(-n3cccc3)cc2)c1 [Compound 5h, 2-(2-(1-(3-methoxyphenyl)ethylidene)hydrazinyl)-2-oxoethyl 4-(1H-pyrrol-1-yl)benzoate] | 12.5 (≈ 31.9 µM) | 3.12 (≈ 7.97 µM) | – | – | 124 | 1.6 (≈ 4.09 µM) | – | – | – | –
O=C1CCC(=O)N(C(=O)COC(=O)c2ccc(-n3cccc3)cc2)N1 [Compound 4d, 2-(3,6-dioxotetrahydropyridazin-1(2H)-yl)-2-oxoethyl 4-(1H-pyrrol-1-yl)benzoate] | 6.25 (≈ 18.3 µM) | 1.6 (≈ 4.69 µM) | – | – | 31 | 1.6 (≈ 4.69 µM) | greater inhibition characteristics than trimethoprim | – | – | –
CC(=NNC(=O)COC(=O)c1ccc(-n2cccc2)cc1)c1cccc(Cl)c1 [Compound 5k, 2-(2-(1-(3-chlorophenyl)ethylidene)hydrazinyl)-2-oxoethyl 4-(1H-pyrrol-1-yl)benzoate] | 12.5 (≈ 31.6 µM) | 3.12 (≈ 7.88 µM) | 229 ± 0.4 (≈ 579 µM) | 32 | 69 | 1.6 (≈ 4.04 µM) | moderate inhibition | – | – | –
CC(=NNC(=O)COC(=O)c1ccc(-n2cccc2)cc1)c1ccc(O)cc1 [Compound 5j, 2-(2-(1-(4-hydroxyphenyl)ethylidene)hydrazinyl)-2-oxoethyl 4-(1H-pyrrol-1-yl)benzoate] | 12.5 (≈ 33.1 µM) | 3.12 (≈ 8.27 µM) | 255 ± 0.3 (≈ 676 µM) | 32 | 70 | 1.6 (≈ 4.24 µM) | moderate inhibition | – | – | –
O=C(OCC(=O)n1[nH]c(=O)ccc1=O)c1ccc(-n2cccc2)cc1 [Compound 4e, 2-(3,6-dioxo-2,3-dihydropyridazin-1(6H)-yl)-2-oxoethyl 4-(1H-pyrrol-1-yl)benzoate] | 6.25 (≈ 18.4 µM) | 1.6 (≈ 4.72 µM) | – | – | 32 | 1.6 (≈ 4.72 µM) | greater inhibition characteristics than trimethoprim | – | – | –
NC(=O)c1cnccn1 [Pyrazinamide, reference compound] | – | – | – | – | – | 3.12 (≈ 25.3 µM) | – | – | – | –
[H]/N=C(/N)N[C@H]1[C@H](O)[C@@H](O)[C@H](O[C@@H]2O[C@@H](C)[C@](O)(C=O)[C@H]2O[C@@H]2O[C@@H](CO)[C@H](O)[C@@H](O)[C@@H]2NC)[C@@H](N/C(N)=N\[H])[C@@H]1O [Streptomycin, reference compound] | 2 (≈ 3.44 µM) | – | – | – | – | 0.8 (≈ 1.38 µM) | – | – | – | –
N.N.[Cl][Pt][Cl] [Cisplatin, reference compound] | – | – | – | – | – | – | – | – | 9.90 | –
CC(=NNC(=O)COC(=O)c1ccc(-n2cccc2)cc1)c1ccc(C)cc1 [Compound 5e, 2-oxo-2-(2-(1-(p-tolyl)ethylidene)hydrazinyl)ethyl 4-(1H-pyrrol-1-yl)benzoate] | 12.5 (≈ 33.3 µM) | 3.12 (≈ 8.31 µM) | – | – | 118 | 1.6 (≈ 4.26 µM) | – | – | – | –
CC(=NNC(=O)COC(=O)c1ccc(-n2cccc2)cc1)c1ccc(N)cc1 [Compound 5o, 2-(2-(1-(4-aminophenyl)ethylidene)hydrazinyl)-2-oxoethyl 4-(1H-pyrrol-1-yl)benzoate] | 12.5 (≈ 33.2 µM) | 3.12 (≈ 8.29 µM) | – | – | 90 | 3.12 (≈ 8.29 µM) | – | – | – | –
C/C(=N\NC(=O)COC(=O)c1ccc(-n2cccc2)cc1)c1ccc([N+](=O)[O-])cc1 [Compound 5d, 2-(2-(1-(4-nitrophenyl)ethylidene) hydrazineyl) -2-oxoethyl-4-(1H-pyrrol-1-yl) benzoate] | 6.25 (≈ 15.4 µM) | 1.6 (≈ 3.94 µM) | – | – | 121 | 1.6 (≈ 3.94 µM) | – | – | – | –
CC(=NNC(=O)COC(=O)c1ccc(-n2cccc2)cc1)c1ccc(Cl)cc1 [Compound 5c, 2-(2-(1-(4-chlorophenyl)ethylidene)hydrazinyl)-2-oxoethyl 4-(1H-pyrrol-1-yl)benzoate] | 6.25 (≈ 15.8 µM) | 1.6 (≈ 4.04 µM) | – | – | 100 | 1.6 (≈ 4.04 µM) | – | – | – | –
NNC(=O)c1ccncc1 [Isoniazid, reference compound] | – | – | > 450 | > 99 | – | 1.6 (≈ 11.7 µM) | – | – | – | –
COc1ccc(C=NNC(=O)COC(=O)c2ccc(-n3cccc3)cc2)cc1 [Compound 6e, 2-(2-(4-methoxybenzylidene)hydrazinyl)-2-oxoethyl 4-(1H-pyrrol-1-yl)benzoate] | 6.25 (≈ 16.6 µM) | 1.6 (≈ 4.24 µM) | – | – | 69 | 1.6 (≈ 4.24 µM) | moderate inhibition | – | – | no inhibition
O=C(COC(=O)c1ccc(-n2cccc2)cc1)NN=Cc1ccccc1Br [Compound 6b, 2-(2-(2-bromobenzylidene)hydrazinyl)-2-oxoethyl 4-(1H-pyrrol-1-yl)benzoate] | 3.12 (≈ 7.32 µM) | 1.6 (≈ 3.75 µM) | – | – | 130 | 1.6 (≈ 3.75 µM) | – | – | – | no inhibition
CC(=NNC(=O)COC(=O)c1ccc(-n2cccc2)cc1)c1ccc(Cl)cc1Cl [Compound 5n, 2-(2-(1-(2,4-dichlorophenyl)ethylidene)hydrazinyl)-2-oxoethyl 4-(1H-pyrrol-1-yl)benzoate] | 6.25 (≈ 14.5 µM) | 0.4 to 0.8 (≈ 0.93 to 1.86 µM) | – | – | 93 | 3.12 (≈ 7.25 µM) | – | 0.8 | – | –
